Measurements from ChEMBL document CHEMBL5260810, “Inhibition of bromodomain-containing protein 9 for the prevention of epigenetically-defined drug resistance” (Bioorg Med Chem Lett, 2017).

target: Bromodomain and WD repeat-containing protein 1 (Homo sapiens, UniProt Q9NSI6); test: Binding affinity to human partial length WDR9 bromodomain 2 (A1310 to E1430 residues) expressed in bacterial expression system by BROMOscan assay; details: not given

SMILES	Kd
C/C=C/Cn1cc(-c2ccc(C(=O)N3CCOCC3)cc2)c2cc[nH]c2c1=O	27 µM
C/C=C/Cn1cc(-c2cc(OC)c(C(C)(C)O)cc2OC)c2cc(C)[nH]c2c1=O	> 10 µM

target: Bromodomain-containing protein 2 (Homo sapiens, UniProt P25440); test: Binding affinity to human partial length BRD2 bromodomain 1 long isoform (K71 to N194 residues) expressed in bacterial expression system by BROMOscan assay; details: not given

SMILES	Kd
C/C=C/Cn1cc(-c2ccc(C(=O)N3CCOCC3)cc2)c2cc[nH]c2c1=O	4 µM
C/C=C/Cn1cc(-c2cc(OC)c(C(C)(C)O)cc2OC)c2cc(C)[nH]c2c1=O	> 10 µM

tested on: U-937; test: Cytotoxicity against human U-937 cells measured after 8 days; type: functional, cell-based; details: U-937, 192 h

SMILES	IC50
C/C=C/Cn1cc(-c2ccc(C(=O)N3CCOCC3)cc2)c2cc[nH]c2c1=O	20 µM

tested on: not listed separately; test: Cytotoxicity against human COLO 206F cells measured after 8 days; type: functional, cell-based; details: 192 h

SMILES	IC50
C/C=C/Cn1cc(-c2ccc(C(=O)N3CCOCC3)cc2)c2cc[nH]c2c1=O	20 µM

tested on: HEL; test: Cytotoxicity against human HEL cells measured after 8 days; type: functional, cell-based; details: 192 h

SMILES	IC50
C/C=C/Cn1cc(-c2ccc(C(=O)N3CCOCC3)cc2)c2cc[nH]c2c1=O	18 µM

target: T1, Transcription initiation factor TFIID subunit 1 (Homo sapiens, UniProt P21675); test: Binding affinity to human partial length TAF1 bromodomain 2 (D1521 to D1656 residues) expressed in bacterial expression system by BROMOscan assay; details: not given
T1 sequence (P21675 whole entry, the tested form may be a part): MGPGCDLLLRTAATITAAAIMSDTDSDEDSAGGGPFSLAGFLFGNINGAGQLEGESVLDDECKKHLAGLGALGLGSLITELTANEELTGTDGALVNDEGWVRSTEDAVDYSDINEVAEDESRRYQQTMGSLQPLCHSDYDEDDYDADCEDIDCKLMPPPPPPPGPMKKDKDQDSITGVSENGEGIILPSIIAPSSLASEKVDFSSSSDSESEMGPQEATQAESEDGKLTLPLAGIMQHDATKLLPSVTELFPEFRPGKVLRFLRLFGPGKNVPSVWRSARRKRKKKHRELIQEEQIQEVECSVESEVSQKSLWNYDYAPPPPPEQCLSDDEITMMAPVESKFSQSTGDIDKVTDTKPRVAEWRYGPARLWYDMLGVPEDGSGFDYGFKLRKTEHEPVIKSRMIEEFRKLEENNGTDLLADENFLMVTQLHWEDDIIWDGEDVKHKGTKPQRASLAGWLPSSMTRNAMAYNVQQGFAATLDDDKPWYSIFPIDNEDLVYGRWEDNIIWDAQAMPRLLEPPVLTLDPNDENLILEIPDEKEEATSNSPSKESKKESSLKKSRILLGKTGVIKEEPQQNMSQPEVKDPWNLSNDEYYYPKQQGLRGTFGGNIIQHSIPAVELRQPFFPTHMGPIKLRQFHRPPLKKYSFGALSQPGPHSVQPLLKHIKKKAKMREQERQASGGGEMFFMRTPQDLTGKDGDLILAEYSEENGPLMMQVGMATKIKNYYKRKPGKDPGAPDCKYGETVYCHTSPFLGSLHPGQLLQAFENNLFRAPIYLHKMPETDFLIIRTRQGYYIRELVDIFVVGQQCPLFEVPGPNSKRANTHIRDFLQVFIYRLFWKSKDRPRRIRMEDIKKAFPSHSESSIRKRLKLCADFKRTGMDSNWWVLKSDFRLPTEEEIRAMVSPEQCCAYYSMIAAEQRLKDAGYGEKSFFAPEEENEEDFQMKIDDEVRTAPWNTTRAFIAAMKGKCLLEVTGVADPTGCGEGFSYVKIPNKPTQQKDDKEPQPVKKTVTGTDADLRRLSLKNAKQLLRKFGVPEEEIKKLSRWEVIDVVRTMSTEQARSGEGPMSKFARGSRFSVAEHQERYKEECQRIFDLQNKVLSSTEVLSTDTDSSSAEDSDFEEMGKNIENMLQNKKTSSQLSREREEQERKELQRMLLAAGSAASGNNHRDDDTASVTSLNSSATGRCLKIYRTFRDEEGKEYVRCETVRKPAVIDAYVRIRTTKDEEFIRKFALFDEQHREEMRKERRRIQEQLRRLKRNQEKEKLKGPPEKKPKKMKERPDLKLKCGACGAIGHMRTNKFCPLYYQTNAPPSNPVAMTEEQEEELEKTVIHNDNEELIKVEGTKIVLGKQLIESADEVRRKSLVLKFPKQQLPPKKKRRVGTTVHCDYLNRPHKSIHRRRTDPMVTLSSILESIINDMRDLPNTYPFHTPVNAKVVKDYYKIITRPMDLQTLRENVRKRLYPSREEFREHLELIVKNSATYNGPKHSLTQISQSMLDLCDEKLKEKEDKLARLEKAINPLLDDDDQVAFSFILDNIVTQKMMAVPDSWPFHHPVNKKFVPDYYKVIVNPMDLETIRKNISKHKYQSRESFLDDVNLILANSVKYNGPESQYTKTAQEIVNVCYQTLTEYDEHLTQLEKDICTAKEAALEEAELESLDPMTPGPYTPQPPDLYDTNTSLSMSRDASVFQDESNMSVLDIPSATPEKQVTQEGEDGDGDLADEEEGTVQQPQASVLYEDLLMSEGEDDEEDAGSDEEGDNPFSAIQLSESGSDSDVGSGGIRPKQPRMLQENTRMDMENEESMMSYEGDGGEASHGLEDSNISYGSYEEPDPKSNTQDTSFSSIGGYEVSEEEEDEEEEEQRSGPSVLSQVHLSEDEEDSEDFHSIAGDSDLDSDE

SMILES	Kd
C/C=C/Cn1cc(-c2ccc(C(=O)N3CCOCC3)cc2)c2cc[nH]c2c1=O	310 nM
C/C=C/Cn1cc(-c2cc(OC)c(C(C)(C)O)cc2OC)c2cc(C)[nH]c2c1=O	> 10000 nM

tested on: LNCaP; test: Cytotoxicity against human LNCaP clone FGC cells measured after 8 days; type: functional, cell-based; details: 192 h

SMILES	IC50
C/C=C/Cn1cc(-c2ccc(C(=O)N3CCOCC3)cc2)c2cc[nH]c2c1=O	16.5 µM

tested on: not listed separately; test: Cytotoxicity against human KPL-4 cells measured after 8 days; type: functional, cell-based; details: KPL4, 192 h

SMILES	IC50
C/C=C/Cn1cc(-c2ccc(C(=O)N3CCOCC3)cc2)c2cc[nH]c2c1=O	20 µM

target: 5-hydroxytryptamine receptor 1B (Rattus norvegicus) (UniProt P28564); test: Displacement of [125I]-CYP from rat brain 5-HT1B receptor at 10 uM after 120 mins by scintillation counting analysis relative to control; details: not given

SMILES	Activity
C/C=C/Cn1cc(-c2ccc(C(=O)N3CCOCC3)cc2)c2cc[nH]c2c1=O	8%

target: Kappa-type opioid receptor (Homo sapiens) (UniProt P41145); test: Displacement of [3H]U69593 from human kappa receptor at 10 uM after 60 mins by scintillation counting analysis relative to control; details: not given

SMILES	Activity
C/C=C/Cn1cc(-c2ccc(C(=O)N3CCOCC3)cc2)c2cc[nH]c2c1=O	6%

tested on: not listed separately; test: Cytotoxicity against human HT115 cells measured after 8 days; type: functional, cell-based; details: HT115, 192 h

SMILES	IC50
C/C=C/Cn1cc(-c2ccc(C(=O)N3CCOCC3)cc2)c2cc[nH]c2c1=O	20 µM

tested on: not listed separately; test: Cytotoxicity against human OUMS-23 cells measured after 8 days; type: functional, cell-based; details: OUMS-23, 192 h

SMILES	IC50
C/C=C/Cn1cc(-c2ccc(C(=O)N3CCOCC3)cc2)c2cc[nH]c2c1=O	20 µM

tested on: OCI-AML-5; test: Cytotoxicity against human OCI-AML5 cells measured after 8 days; type: functional, cell-based; details: OCI-AML-5, 192 h

SMILES	IC50
C/C=C/Cn1cc(-c2ccc(C(=O)N3CCOCC3)cc2)c2cc[nH]c2c1=O	20 µM

target: Bromodomain adjacent to zinc finger domain protein 2A (Homo sapiens, UniProt Q9UIF9); test: Binding affinity to human partial length BAZ2A (M1792 to L1905 residues) expressed in bacterial expression system by BROMOscan assay; details: not given

SMILES	Kd
C/C=C/Cn1cc(-c2ccc(C(=O)N3CCOCC3)cc2)c2cc[nH]c2c1=O	> 10 µM
C/C=C/Cn1cc(-c2cc(OC)c(C(C)(C)O)cc2OC)c2cc(C)[nH]c2c1=O	> 10 µM

target: SWI/SNF-related matrix-associated actin-dependent regulator of chromatin subfamily A member 4 (Homo sapiens, UniProt P51532); test: Binding affinity to human partial length SMARCA4 (A1448 to S1575 residues) expressed in bacterial expression system by BROMOscan assay; details: not given

SMILES	Kd
C/C=C/Cn1cc(-c2ccc(C(=O)N3CCOCC3)cc2)c2cc[nH]c2c1=O	28 µM
C/C=C/Cn1cc(-c2cc(OC)c(C(C)(C)O)cc2OC)c2cc(C)[nH]c2c1=O	> 10 µM

tested on: A-375; test: Cytotoxicity against human A-375 cells measured after 8 days; type: functional, cell-based; details: A-375, 192 h

SMILES	IC50
C/C=C/Cn1cc(-c2ccc(C(=O)N3CCOCC3)cc2)c2cc[nH]c2c1=O	20 µM

target: T2, Bromodomain-containing protein 8 (Homo sapiens, UniProt Q9H0E9); test: Binding affinity to BRD8 bromodomain 2 (unknown origin) by BROMOscan assay; details: not given
T2 sequence (Q9H0E9 whole entry): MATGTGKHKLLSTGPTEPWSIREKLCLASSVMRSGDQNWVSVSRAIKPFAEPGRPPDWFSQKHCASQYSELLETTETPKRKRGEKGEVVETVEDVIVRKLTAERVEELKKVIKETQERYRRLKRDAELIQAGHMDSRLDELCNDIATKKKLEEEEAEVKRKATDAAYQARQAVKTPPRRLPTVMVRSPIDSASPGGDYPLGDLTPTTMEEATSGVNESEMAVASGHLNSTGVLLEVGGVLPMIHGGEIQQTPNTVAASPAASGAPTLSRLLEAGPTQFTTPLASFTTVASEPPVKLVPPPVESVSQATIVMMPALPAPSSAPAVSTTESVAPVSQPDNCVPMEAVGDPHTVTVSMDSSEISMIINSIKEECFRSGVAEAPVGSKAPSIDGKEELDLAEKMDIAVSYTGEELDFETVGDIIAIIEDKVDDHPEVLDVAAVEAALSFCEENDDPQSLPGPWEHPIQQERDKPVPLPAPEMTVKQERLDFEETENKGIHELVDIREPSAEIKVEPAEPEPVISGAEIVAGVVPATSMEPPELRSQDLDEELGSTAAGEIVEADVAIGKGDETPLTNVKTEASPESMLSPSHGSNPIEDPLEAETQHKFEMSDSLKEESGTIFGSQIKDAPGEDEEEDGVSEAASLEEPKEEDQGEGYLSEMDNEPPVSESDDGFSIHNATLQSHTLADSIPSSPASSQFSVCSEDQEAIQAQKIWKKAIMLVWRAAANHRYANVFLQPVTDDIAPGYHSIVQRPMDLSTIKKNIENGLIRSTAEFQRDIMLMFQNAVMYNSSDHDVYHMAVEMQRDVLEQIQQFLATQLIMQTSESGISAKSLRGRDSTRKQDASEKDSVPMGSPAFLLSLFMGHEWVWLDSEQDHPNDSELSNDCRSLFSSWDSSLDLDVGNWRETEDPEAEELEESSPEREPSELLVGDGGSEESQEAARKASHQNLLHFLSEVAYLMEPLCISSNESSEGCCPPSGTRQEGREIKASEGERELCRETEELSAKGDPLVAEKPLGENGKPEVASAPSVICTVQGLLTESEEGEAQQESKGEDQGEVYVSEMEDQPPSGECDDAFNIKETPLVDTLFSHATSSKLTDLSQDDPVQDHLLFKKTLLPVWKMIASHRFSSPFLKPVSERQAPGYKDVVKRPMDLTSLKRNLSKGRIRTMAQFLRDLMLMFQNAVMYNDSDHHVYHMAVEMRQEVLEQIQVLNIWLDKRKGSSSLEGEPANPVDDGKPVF

SMILES	Kd
C/C=C/Cn1cc(-c2ccc(C(=O)N3CCOCC3)cc2)c2cc[nH]c2c1=O	> 10 µM
C/C=C/Cn1cc(-c2cc(OC)c(C(C)(C)O)cc2OC)c2cc(C)[nH]c2c1=O	> 10 µM

tested on: MKN-45; test: Cytotoxicity against human MKN-45 cells measured after 8 days; type: functional, cell-based; details: MKN-45, 192 h

SMILES	IC50
C/C=C/Cn1cc(-c2ccc(C(=O)N3CCOCC3)cc2)c2cc[nH]c2c1=O	20 µM

tested on: not listed separately; test: Cytotoxicity against human LS174T-HM7 cells measured after 8 days; type: functional, cell-based; details: LS174T-HM7, 192 h

SMILES	IC50
C/C=C/Cn1cc(-c2ccc(C(=O)N3CCOCC3)cc2)c2cc[nH]c2c1=O	20 µM

target: T2, Bromodomain-containing protein 8; test: Binding affinity to BRD8 bromodomain 1 (unknown origin) by BROMOscan assay; details: not given

SMILES	Kd
C/C=C/Cn1cc(-c2ccc(C(=O)N3CCOCC3)cc2)c2cc[nH]c2c1=O	> 10 µM
C/C=C/Cn1cc(-c2cc(OC)c(C(C)(C)O)cc2OC)c2cc(C)[nH]c2c1=O	> 10 µM

tested on: SKM-1; test: Cytotoxicity against human SKM-1 cells measured after 8 days; type: functional, cell-based; details: SKM-1, 192 h

SMILES	IC50
C/C=C/Cn1cc(-c2ccc(C(=O)N3CCOCC3)cc2)c2cc[nH]c2c1=O	13.9 µM

target: Adenosine receptor A2a (Homo sapiens) (UniProt P29274); test: Displacement of [3H]-CGS 21680 from human recombinant adenosine A2A receptor at 10 uM after 120 mins by scintillation counting analysis relative to control; details: not given

SMILES	Activity
C/C=C/Cn1cc(-c2ccc(C(=O)N3CCOCC3)cc2)c2cc[nH]c2c1=O	8%

target: T3, Serine/threonine-protein kinase Chk1 (Homo sapiens) (UniProt O14757); test: Inhibition of CHK1 (unknown origin) at 1 uM relative to control; details: not given
T3 sequence (whole entry): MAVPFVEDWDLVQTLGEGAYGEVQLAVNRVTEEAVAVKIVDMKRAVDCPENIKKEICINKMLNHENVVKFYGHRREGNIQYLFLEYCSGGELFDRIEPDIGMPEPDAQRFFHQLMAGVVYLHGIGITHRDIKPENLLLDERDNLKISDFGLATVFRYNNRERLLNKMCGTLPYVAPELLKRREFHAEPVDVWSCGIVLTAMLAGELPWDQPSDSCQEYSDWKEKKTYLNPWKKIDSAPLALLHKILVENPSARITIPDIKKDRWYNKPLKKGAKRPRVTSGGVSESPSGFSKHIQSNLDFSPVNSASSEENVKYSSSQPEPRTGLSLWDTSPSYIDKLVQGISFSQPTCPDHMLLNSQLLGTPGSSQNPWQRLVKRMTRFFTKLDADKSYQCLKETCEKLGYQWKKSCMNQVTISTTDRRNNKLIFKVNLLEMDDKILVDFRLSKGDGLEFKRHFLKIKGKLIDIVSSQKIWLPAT

SMILES	inhibition
C/C=C/Cn1cc(-c2ccc(C(=O)N3CCOCC3)cc2)c2cc[nH]c2c1=O	3.4%

tested on: BJAB; test: Cytotoxicity against human BJAB cells measured after 8 days; type: functional, cell-based; details: 192 h

SMILES	IC50
C/C=C/Cn1cc(-c2ccc(C(=O)N3CCOCC3)cc2)c2cc[nH]c2c1=O	16.5 µM

target: Histone acetyltransferase KAT2B (Homo sapiens, UniProt Q92831); test: Binding affinity to human partial length PCAF (G715 to D831 residues) expressed in bacterial expression system by BROMOscan assay; details: not given

SMILES	Kd
C/C=C/Cn1cc(-c2ccc(C(=O)N3CCOCC3)cc2)c2cc[nH]c2c1=O	> 10 µM
C/C=C/Cn1cc(-c2cc(OC)c(C(C)(C)O)cc2OC)c2cc(C)[nH]c2c1=O	> 10 µM

target: T1, Transcription initiation factor TFIID subunit 1; test: Displacement of biotinylated small-molecule ligand from recombinant His-tagged TAF1 bromodomain 2 (unknown origin) measured after 10 mins by TR-FRET assay; details: not given

SMILES	IC50
C/C=C/Cn1cc(-c2ccc(C(=O)N3CCOCC3)cc2)c2cc[nH]c2c1=O	1500 nM
C/C=C/Cn1cc(-c2cc(OC)c(C(C)(C)O)cc2OC)c2cc(C)[nH]c2c1=O	> 20000 nM

tested on: not listed separately; test: Cytotoxicity against human NCI-H2731 cells measured after 8 days; type: functional, cell-based; details: NCI-H2731, 192 h

SMILES	IC50
C/C=C/Cn1cc(-c2ccc(C(=O)N3CCOCC3)cc2)c2cc[nH]c2c1=O	20 µM

target: Sodium-dependent noradrenaline transporter (Homo sapiens) (UniProt P23975); test: Displacement of [3H]nisoxetine from recombinant human norepinephrine transporter at 10 uM after 120 mins by scintillation counting analysis relative to control; details: not given

SMILES	Activity
C/C=C/Cn1cc(-c2ccc(C(=O)N3CCOCC3)cc2)c2cc[nH]c2c1=O	-3%

tested on: HDQ-P1; test: Cytotoxicity against human HDQ-P1 cells measured after 8 days; type: functional, cell-based; details: HDQ-P1, 192 h

SMILES	IC50
C/C=C/Cn1cc(-c2ccc(C(=O)N3CCOCC3)cc2)c2cc[nH]c2c1=O	20 µM

target: Protein polybromo-1 (Homo sapiens, UniProt Q86U86); test: Binding affinity to human partial length PBRM1 bromodomain 5 (S645 to D766 residues) expressed in bacterial expression system by BROMOscan assay; details: not given
Sequence (Q86U86 whole entry, the tested form may be a part): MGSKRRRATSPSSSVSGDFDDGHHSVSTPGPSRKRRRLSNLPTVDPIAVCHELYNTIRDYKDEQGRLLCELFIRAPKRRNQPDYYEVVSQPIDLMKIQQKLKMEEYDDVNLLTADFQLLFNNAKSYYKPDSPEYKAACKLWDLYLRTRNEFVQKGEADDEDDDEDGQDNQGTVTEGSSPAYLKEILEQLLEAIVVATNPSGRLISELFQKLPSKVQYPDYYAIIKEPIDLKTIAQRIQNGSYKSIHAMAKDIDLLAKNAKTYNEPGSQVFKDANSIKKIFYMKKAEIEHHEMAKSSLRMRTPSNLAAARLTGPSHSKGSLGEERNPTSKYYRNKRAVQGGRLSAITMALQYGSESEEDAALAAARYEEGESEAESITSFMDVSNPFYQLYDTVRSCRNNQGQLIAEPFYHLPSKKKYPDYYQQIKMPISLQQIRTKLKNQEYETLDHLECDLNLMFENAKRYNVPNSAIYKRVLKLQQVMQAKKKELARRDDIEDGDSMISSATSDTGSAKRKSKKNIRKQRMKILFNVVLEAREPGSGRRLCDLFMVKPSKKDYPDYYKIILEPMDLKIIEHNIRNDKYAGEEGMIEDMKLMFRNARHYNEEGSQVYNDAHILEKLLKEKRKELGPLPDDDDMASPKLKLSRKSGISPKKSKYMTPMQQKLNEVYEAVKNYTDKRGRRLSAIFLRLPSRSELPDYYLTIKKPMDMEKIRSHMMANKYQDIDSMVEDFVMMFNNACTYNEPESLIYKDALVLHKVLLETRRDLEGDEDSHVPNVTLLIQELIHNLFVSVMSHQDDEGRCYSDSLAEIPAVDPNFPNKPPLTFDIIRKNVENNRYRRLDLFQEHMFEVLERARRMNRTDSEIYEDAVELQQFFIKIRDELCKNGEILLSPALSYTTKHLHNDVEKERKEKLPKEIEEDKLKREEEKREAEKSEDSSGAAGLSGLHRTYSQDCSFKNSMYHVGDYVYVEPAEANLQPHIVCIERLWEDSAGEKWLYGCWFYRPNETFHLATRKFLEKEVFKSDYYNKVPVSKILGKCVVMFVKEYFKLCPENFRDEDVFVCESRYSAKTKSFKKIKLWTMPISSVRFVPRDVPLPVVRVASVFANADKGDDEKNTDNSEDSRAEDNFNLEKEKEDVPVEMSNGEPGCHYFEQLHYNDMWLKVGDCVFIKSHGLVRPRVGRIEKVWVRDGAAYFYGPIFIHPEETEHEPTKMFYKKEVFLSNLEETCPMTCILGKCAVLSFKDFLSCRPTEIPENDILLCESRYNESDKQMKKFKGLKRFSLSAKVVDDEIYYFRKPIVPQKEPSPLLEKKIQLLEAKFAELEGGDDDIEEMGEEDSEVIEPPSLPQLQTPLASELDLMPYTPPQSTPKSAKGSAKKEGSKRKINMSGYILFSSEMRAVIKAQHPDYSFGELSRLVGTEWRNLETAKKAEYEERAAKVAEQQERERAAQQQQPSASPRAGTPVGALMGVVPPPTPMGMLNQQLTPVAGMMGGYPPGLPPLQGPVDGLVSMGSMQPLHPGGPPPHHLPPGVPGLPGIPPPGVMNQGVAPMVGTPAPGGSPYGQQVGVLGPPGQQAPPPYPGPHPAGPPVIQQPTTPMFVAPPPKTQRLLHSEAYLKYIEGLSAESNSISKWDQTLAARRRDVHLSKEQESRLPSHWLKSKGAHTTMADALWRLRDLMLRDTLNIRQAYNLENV

SMILES	Kd
C/C=C/Cn1cc(-c2ccc(C(=O)N3CCOCC3)cc2)c2cc[nH]c2c1=O	26 µM
C/C=C/Cn1cc(-c2cc(OC)c(C(C)(C)O)cc2OC)c2cc(C)[nH]c2c1=O	> 10 µM

tested on: UMC-11; test: Cytotoxicity against human UMC-11 cells measured after 8 days; type: functional, cell-based; details: UMC-11, 192 h

SMILES	IC50
C/C=C/Cn1cc(-c2ccc(C(=O)N3CCOCC3)cc2)c2cc[nH]c2c1=O	20 µM

target: Mu-type opioid receptor (Homo sapiens) (UniProt P35372); test: Displacement of [3H]DAMGO from human recombinant mu receptor at 10 uM after 120 mins by scintillation counting analysis relative to control; details: not given

SMILES	Activity
C/C=C/Cn1cc(-c2ccc(C(=O)N3CCOCC3)cc2)c2cc[nH]c2c1=O	5%

target: Bromodomain-containing protein 3 (Homo sapiens, UniProt Q15059); test: Binding affinity to BRD3 bromodomain 1/2 (unknown origin) by BROMOscan assay; details: not given

SMILES	Kd
C/C=C/Cn1cc(-c2ccc(C(=O)N3CCOCC3)cc2)c2cc[nH]c2c1=O	4.4 µM
C/C=C/Cn1cc(-c2cc(OC)c(C(C)(C)O)cc2OC)c2cc(C)[nH]c2c1=O	> 10 µM

tested on: CA46; test: Cytotoxicity against human CA46 cells measured after 8 days; type: functional, cell-based; details: CA46, 192 h

SMILES	IC50
C/C=C/Cn1cc(-c2ccc(C(=O)N3CCOCC3)cc2)c2cc[nH]c2c1=O	20 µM

target: Dual specificity mitogen-activated protein kinase kinase 1 (Homo sapiens) (UniProt Q02750); test: Inhibition of MEK1 (unknown origin) at 1 uM relative to control; details: not given

SMILES	inhibition
C/C=C/Cn1cc(-c2ccc(C(=O)N3CCOCC3)cc2)c2cc[nH]c2c1=O	3%

tested on: LCLC-97TM1; test: Cytotoxicity against human LCLC-97TM1 cells measured after 8 days; type: functional, cell-based; details: LCLC-97TM1, 192 h

SMILES	IC50
C/C=C/Cn1cc(-c2ccc(C(=O)N3CCOCC3)cc2)c2cc[nH]c2c1=O	20 µM

tested on: NCI-H650; test: Cytotoxicity against human NCI-H650 cells measured after 8 days; type: functional, cell-based; details: NCI-H650, 192 h

SMILES	IC50
C/C=C/Cn1cc(-c2ccc(C(=O)N3CCOCC3)cc2)c2cc[nH]c2c1=O	20 µM
